# Measured values published in patent US20030040510A1, “Selective estrogen receptor modulators in combination with estrogens” (Endorecherche, Inc., priority 2000, published 2003).
# Entries after “also recorded” stand apart in the source; their conditions may differ. Where two headings read alike, the source gives them in different places. Marks after values point to notes of the source that are not given here.
# Tests used:
# Solid state stability = assay type: physicochemical
# Text: In administering either EM-800 or EM-1538, it is believed to result in the same active compound in vivo.
# MCF-7 cells = test: Proliferation of human breast cancer MCF-7 cells (DNA content); assay type: cell-based; conditions: for IC50: Homo sapiens, read-out: Inhibition of 1nM E2 stimulation of DNA by tested compounds IC50
# Protocol: The MCF-7 human breast adenocarcinoma cell line was derived from the pleural effusion of a patient. MCF-7 cells were used between passages 148 and 165 and subcultured weekly
# Cells in their late logarithmic growth phase were harvested with 0.1% pancreatin (Sigma) and resuspended in the appropriate medium containing 50 ng bovine insulin/ml and 5% (v/v) FBS treated twice with dextran-coated charcoal to remove endogenous steroids. Cells were plated in 24-well Falcon plastic culture plates (2 cm^2/well) at the indicated density and allowed to adhere to the surface of the plates for 72 h. Thereafter, medium was replaced with fresh medium containing the indicated concentrations of compounds diluted from 1000×stock solutions in 99% redistilled ethanol in the presence or absence of E2. Control cells received only the ethanolic vehicle (0.1% EtOH,v/v). Cells were incubated for the specified time intervals with medium changes at 2-or 3-day intervals. Cell number was determined by measurement of DNA content.
# Dose-response curves as well IC50 values were calculated using a weighted iterative nonlinear least-squares regression. All results are expressed as means±SEM.
# [1] = system: human breast cancer ZR-75-1 xenografts; test: Tamoxifen-stimulated growth of ZR-75-1 xenografts in nude mice with or without EM-652.HCl (FIG. 9); assay type: in vivo
# [2] = system: breast and endometrial tissues; test: Antiestrogens tested for SERM function and estrogenic activity in breast and endometrium
# endometrial epithelium = test: Thickness of uterine (endometrial) epithelial cells in the mice of Example 8; assay type: in vivo, nude mice; conditions: for Endometrial epithelium thickness: 161 days
# Text: The 17 groups included two control groups (OVX and OVX+Estrone), seven groups supplemented with an estrone implant and treated with an antiestrogen and eight other groups that received an antiestrogen alone. The estrone implants were then removed from the animals in the ovariectomized control group (OVX) and in groups that were to receive the antiestrogen alone. […] Tamoxifen was purchased from […], Israel) while toremifene citrate was purchased from Orion (Espoo, Finland). […] Animals in both control groups received 0.2 ml of the vehicle alone. The antiestrogen suspensions at the appropriate concentration were prepared each month, stored at 4° C. and used under constant agitation. Powder stock were hermetically stored at 4° C. […] After 161 days of treatment, the remaining animals were anesthetized with isoflurane and killed by exsanguination. […] The uteri were prepared to evaluate endometrial thickness by image analysis performed with Image Pro-Plus (Media Cybernetics, Maryland, USA). […] Hematoxylin- and eosin-stained sections of mice uteri were analysed. […] Mean epithelial cell height was measured in all animals of each group.
# [3] = system: ovariectomized female rats; test: Prevention of bone loss, body fat, serum cholesterol and ALP, 3-month treatment of OVX rats (Example 5A, experiment 1); assay type: in vivo, Sprague-Dawley rats; conditions: OVX rats, 3 months
# Protocol: Ten to twelve week-old female Sprague-Dawley rats (Crl:CD(SD)Br) (Charles River Laboratory, St-Constant, Canada) weighing approximately 220-270 g at start of treatment were used. The animals were acclimatized to the environmental conditions (temperature: 22±3° C.; humidity: 50±20%; 12-h light-12-h dark cycles, lights on at 07:15 h) for at least 1 week before starting the experiments. The animals were housed individually and were allowed free access to tap water and a pelleted certified rodent feed (Lab Diet 5002, Ralston Purina, St-Louis, Mo.). Experiments were conducted in an animal facility approved by the Canadian Council on Animal Care (CCAC) and the Association for Assessment and Accreditation of Laboratory Animal Care (AAALAC) in accordance with the CCAC Guide for Care and Use of Experimental Animals.
# On day 1 of the study, the animals of the appropriate groups were bilaterally ovariectomized (OVX) under isoflurane anesthesia. […] Treatments were initiated on day 2 of the study and were performed once daily during 3 months.
# After 3 months (experiment 1) or 26 weeks (experiment 2) of treatment, individual rats under Isoflurane anesthesia had their whole body skeleton and lumbar spine scanned using dual energy x-ray absorptiometry (DEXA; QDR 4500A, Hologic, Waltham, Mass.) and a Regional High Resolution Scan software. The bone mineral density (BMD) of the lumbar spine (vertebrae L2 to L4) and the total body composition (fat percentage) were determined.
# After 3 months (experiment 1) or 26 weeks (experiment 2) of treatment, blood samples were collected at the jugular vein from overnight fasted animals (under Isoflurane anesthesia). Samples were processed for serum preparation and frozen at −80° C. until assay. Serum cholesterol levels and alkaline phospatase activity (ALP) were determined using the Boehringer Mannheim Diagnostic Hitachi 911 Analyzer (Boehringer Mannheim Diagnostic Laboratory Systems).
smiles,measurement,setting,value
"CC1=C(c2ccc(O)cc2)[C@H](c2ccc(OCCN3CCCCC3)cc2)Oc2cc(O)ccc21.Cl [EM-652.HCl, (S)-(+)-7-hydroxy-3-(4′-hydroxyphenyl)-4-methyl-2-(4″-(2′″-piperidinoethoxy)phenyl)-2H-1-benzopyran hydrochloride]",Solid state stability,Solid state stability,good solid state stability
same,IC50,"MCF-7 cells; MCF7, MCF-7, Experiment 2",205 pM
same,IC50,"MCF-7 cells; MCF7, MCF-7, Experiment 1",796 pM
same,Maximal stimulation of DNA by tested compounds,"MCF-7 cells; MCF-7, Experiment 1",N.S.
same,Stimulation of DNA by tested compounds,"MCF-7 cells; MCF-7, Experiment 2",N.S.
same,Effect on tumor growth in the absence of Tamoxifen,"[1]; EM-652.HCl by itself, hydrochloride",has no effect on tumor growth; also recorded: did not exert any stimulatory effect
same,Effect on the stimulatory effect of Tamoxifen on tumor growth,[1]; simultaneous treatment with Tamoxifen,completely blocked
same,Function as SERM,[2],found to function as SERMs
same,Estrogenic activity in breast and endometrial tissues,[2]; physiological or pharmacological concentrations,do not have any estrogenic activity
same,Inhibition of the stimulatory effect of estrone on epithelial height,endometrial epithelium; 50 μg daily oral + estrone,70%
same,"Height of uterine epithelial cells, of the OVX control group value","endometrial epithelium; 200 μg daily, absence of estrone",114%
same,Endometrial epithelium thickness,endometrial epithelium; OVX + E1 + antiestrogen 50 μg daily,25.06^b ± 0.07 μm
same,Endometrial epithelium thickness,"endometrial epithelium; OVX + antiestrogen 200 μg daily, no estrone",20.79 ± 0.10 μm
same,OVX-induced fat percentage increase,[3],completely prevented
same,Serum ALP,[3],91 ± 6 IU/L
same,Serum cholesterol,[3],0.87 ± 0.04 mmol/L
